By IC50 is commonly meant the midpoint of a concentration-inhibition curve.

The results in this text go back to US11279687B2, “Compounds and compositions for the inhibition of NAMPT” (Valo Health, Inc., priority 2010, dated 2022).

In experiment [1] the target is NAMPT (Homo sapiens (Human), UniProt P43490). The experiment can be described thus: NAMPT biochemical inhibition assay (NMN quantified by mass spectrometry). To be noted: NAMPT biochemical inhibition; read-out: Biochem IC50.
In experiment [2] the test system is A2780 cells. In words: In-vitro cell proliferation assay (SRB), A2780 cells.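 Note: viable cell number read as SRB absorbance, background from media-only wells subtracted, IC50 interpolated from percent inhibition at two bracketing compound concentrations.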 It counts as cell-based. To be noted: A2780 cells, 72 hours, SRB, read-out: A2780 IC50.

Where two headings read alike, the source gives them in different places.

Chain of NAMPT (P43490 whole entry): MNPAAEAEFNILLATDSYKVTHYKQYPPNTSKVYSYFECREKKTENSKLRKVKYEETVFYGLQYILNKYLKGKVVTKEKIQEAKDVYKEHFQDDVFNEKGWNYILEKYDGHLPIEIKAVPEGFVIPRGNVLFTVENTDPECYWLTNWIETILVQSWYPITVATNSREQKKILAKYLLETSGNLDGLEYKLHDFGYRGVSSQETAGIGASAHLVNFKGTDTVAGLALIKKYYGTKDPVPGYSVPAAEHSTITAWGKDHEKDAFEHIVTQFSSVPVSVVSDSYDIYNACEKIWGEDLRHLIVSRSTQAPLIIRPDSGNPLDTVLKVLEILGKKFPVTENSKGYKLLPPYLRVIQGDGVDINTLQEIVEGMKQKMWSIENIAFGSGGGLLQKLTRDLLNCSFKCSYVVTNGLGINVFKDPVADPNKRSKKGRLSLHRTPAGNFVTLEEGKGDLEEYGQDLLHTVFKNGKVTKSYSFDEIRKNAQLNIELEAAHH

Consider `O=C(NCc1cccnc1)Nc1ccc(S(=O)(=O)c2cccc(OCC3CC3)c2)cc1` [1-(4-{[3-(cyclopropylmethoxy)benzene]sulfonyl}phenyl)-3-(pyridin-3-ylmethyl)urea], for which the IC50 in experiment [1] is 0.0086 µM; in experiment [2] (Homo sapiens, A2780, 72 h), 0.1 to 1 µM.

Take `O=C(NCc1cccnc1)Nc1ccc(S(=O)(=O)c2ccc(Br)cc2)cc1` [3-{4-[(4-bromobenzene)sulfonyl]phenyl}-1-(pyridin-3-ylmethyl)urea]: the IC50 in experiment [1] came out at 0.003 µM; in experiment [2] (Homo sapiens, A2780, 72 h), 0.239 µM.

For the compound `COc1ccc2ccccc2c1S(=O)(=O)c1ccc(NC(=O)NCc2cccnc2)cc1` [3-[4-(2-methoxynaphthalene-1-sulfonyl)phenyl]-1-(pyridin-3-ylmethyl)urea], the IC50 turned out to be 0.002 µM in experiment [1] and 0.012 µM in experiment [2] (Homo sapiens, A2780, 72 h).

For `O=C(NCc1cccnc1)Nc1ccc(S(=O)(=O)Nc2cc(C(F)(F)F)ccc2N2CCCCC2)cc1` [3-(4-{[2-(piperidin-1-yl)-5-(trifluoromethyl)phenyl]sulfamoyl}phenyl)-1-(pyridin-3-ylmethyl)urea], the IC50 amounted to 0.005 µM in experiment [1] and 0.022 µM in experiment [2] (Homo sapiens, A2780, 72 h).

Consider `COc1ccc(S(=O)(=O)c2ccc(NC(=O)NCc3cccnc3)cc2)cn1` [3-[4-(6-methoxypyridine-3-sulfonyl)phenyl]-1-(pyridin-3-ylmethyl)urea], for which the IC50 in experiment [1] is 0.005 µM; in experiment [2] (Homo sapiens, A2780, 72 h), 0.1 to 1 µM.

Take `O=C(NCc1cccnc1)Nc1ccc(S(=O)(=O)c2ccnc(N3CCOCC3)c2Cl)cc1` [3-{4-[3-chloro-2-(morpholin-4-yl)pyridine-4-sulfonyl]phenyl}-1-(pyridin-3-ylmethyl)urea]: the IC50 is 0.004 µM in experiment [1] and 0.0142 µM in experiment [2] (Homo sapiens, A2780, 72 h).

As to `Cc1cc(C(F)(F)F)ccc1S(=O)(=O)c1ccc(NC(=O)NCc2cccnc2)cc1` [3-(4-{[2-methyl-4-(trifluoromethyl)benzene]sulfonyl}phenyl)-1-(pyridin-3-ylmethyl)urea], the IC50 in experiment [1] was 0.0118 µM; in experiment [2] (Homo sapiens, A2780, 72 h), 0.1 to 1 µM.

For `CCCOc1ccc(S(=O)(=O)c2ccc(NC(=O)NCc3cccnc3)cc2)cc1Cl` [3-{4-[(3-chloro-4-propoxybenzene)sulfonyl]phenyl}-1-(pyridin-3-ylmethyl)urea], the IC50 is 0.0046 µM in experiment [1] and 0.1 to 1 µM in experiment [2] (Homo sapiens, A2780, 72 h).

In the case of `COc1ccc(C)c(NS(=O)(=O)c2ccc(NC(=O)NCc3cccnc3)cc2)c1` [3-{4-[(5-methoxy-2-methylphenyl)sulfamoyl]phenyl}-1-(pyridin-3-ylmethyl)urea], the IC50 in experiment [1] was 0.002 µM; in experiment [2] (Homo sapiens, A2780, 72 h), 0.079 µM.

In the case of `O=C(NCc1ccc2nccn2c1)c1ccc(S(=O)(=O)c2cccc(OC(F)(F)F)c2)cc1` [N-{imidazo[1,2-a]pyridin-6-ylmethyl}-4-{[3-(trifluoromethoxy)benzene]sulfonyl}benzamide], the IC50 stood at 0.139 µM in experiment [1] and 0.0018 µM in experiment [2] (Homo sapiens, A2780, 72 h).

With `O=C(NCc1cccnc1)Nc1ccc(S(=O)(=O)c2cccc3c2OCO3)cc1` [1-[4-(2H-1,3-benzodioxole-4-sulfonyl)phenyl]-3-(pyridin-3-ylmethyl)urea], the IC50 in experiment [1] was 0.0043 µM; in experiment [2] (Homo sapiens, A2780, 72 h), 0.1 to 1 µM.

On to `O=C(NCCc1cccnc1)c1ccc(S(=O)(=O)c2cccc(OC(F)(F)F)c2)cc1` [N-[2-(pyridin-3-yl)ethyl]-4-{[3-(trifluoromethoxy)benzene]sulfonyl}benzamide], for which the IC50 was determined as 9.37 µM in experiment [1] and 0.374 µM in experiment [2] (Homo sapiens, A2780, 72 h).

Consider `CCNS(=O)(=O)c1cccc(S(=O)(=O)c2ccc(NC(=O)NCc3cccnc3)cc2)c1` [3-(4-{[3-(ethylsulfamoyl)benzene]sulfonyl}phenyl)-1-(pyridin-3-ylmethyl)urea], for which the IC50 is 0.0072 µM in experiment [1] and 0.1 to 1 µM in experiment [2] (Homo sapiens, A2780, 72 h).

On to `CN(C(=O)CN1CCN(S(=O)(=O)c2ccc(NC(=O)NCc3cccnc3)cc2)CC1)c1ccccc1` [N-methyl-N-phenyl-2-{4-[(4-{[(pyridin-3-ylmethyl)carbamoyl]amino}benzene)sulfonyl]piperazin-1-yl}acetamide], for which the IC50 in experiment [1] stood at 0.008 µM; in experiment [2] (Homo sapiens, A2780, 72 h), 0.03 µM.

Take `CCc1ccc(S(=O)(=O)c2ccc(NC(=O)NCc3cccnc3)cc2)cc1` [3-{4-[(4-ethylbenzene)sulfonyl]phenyl}-1-(pyridin-3-ylmethyl)urea]: the IC50 in experiment [1] amounted to 0.003 µM; in experiment [2] (Homo sapiens, A2780, 72 h), 0.533 µM.

As for `COc1cc(S(=O)(=O)c2ccc(NC(=O)NCc3cccnc3)cc2)ccc1F` [3-{4-[(4-fluoro-3-methoxybenzene)sulfonyl]phenyl}-1-(pyridin-3-ylmethyl)urea], the IC50 amounted to 0.0037 µM in experiment [1] and 0.0446 µM in experiment [2] (Homo sapiens, A2780, 72 h).

With `CC(C)(NS(=O)(=O)c1ccc(NC(=O)NCc2cccnc2)cc1)c1ccccc1` [3-{4-[(2-phenylpropan-2-yl)sulfamoyl]phenyl}-1-(pyridin-3-ylmethyl)urea], the IC50 was 0.005 µM in experiment [1] and 0.039 µM in experiment [2] (Homo sapiens, A2780, 72 h).

For the compound `O=C(NCc1cccnc1)Nc1ccc(S(=O)(=O)c2cncc3ccccc23)cc1` [1-[4-(isoquinoline-4-sulfonyl)phenyl]-3-(pyridin-3-ylmethyl)urea], the IC50 amounted to 0.0014 µM in experiment [1] and 0.0083 µM in experiment [2] (Homo sapiens, A2780, 72 h).

Regarding `O=C(NCc1cccnc1)Nc1ccc(S(=O)(=O)N2CCN(C(=O)c3ccco3)CC2)cc1` [1-(4-{4-[(furan-2-yl)carbonyl]piperazine-1-sulfonyl}phenyl)-3-(pyridin-3-ylmethyl)urea], the IC50 in experiment [1] stood at 0.004 µM; in experiment [2] (Homo sapiens, A2780, 72 h), 0.168 µM.

In the case of `O=C(NCc1cccnc1)Nc1ccc(S(=O)(=O)N2CC3CCC2C3)cc1` (stereo not drawn) [1-(4-{2-azabicyclo[2.2.1]heptane-2-sulfonyl}phenyl)-3-(pyridin-3-ylmethyl)urea], the IC50 in experiment [1] turned out to be 0.01 µM; in experiment [2] (Homo sapiens, A2780, 72 h) it was 0.236 µM.

Regarding `O=C(NCc1cccnc1)Nc1ccc(S(=O)(=O)c2ccc(Cl)c(Cl)c2)cc1` [3-{4-[(3,4-dichlorobenzene)sulfonyl]phenyl}-1-(pyridin-3-ylmethyl)urea], the IC50 in experiment [1] was 0.0029 µM; in experiment [2] (Homo sapiens, A2780, 72 h), 0.1 to 1 µM.

On to `O=C(NCc1cccnc1)Nc1ccc(S(=O)(=O)Nc2cc(C(F)(F)F)ccc2N2CCOCC2)cc1` [3-(4-{[2-(morpholin-4-yl)-5-(trifluoromethyl)phenyl]sulfamoyl}phenyl)-1-(pyridin-3-ylmethyl)urea], for which the IC50 was found to be 0.008 µM in experiment [1] and 0.007 µM in experiment [2] (Homo sapiens, A2780, 72 h).

Take `O=C(NCc1cccnc1)Nc1ccc(S(=O)(=O)c2cccc(-c3ccccc3)c2)cc1` [1-{4-[(3-phenylbenzene)sulfonyl]phenyl}-3-(pyridin-3-ylmethyl)urea]: the IC50 is 0.0068 µM in experiment [1] and 0.1 to 1 µM in experiment [2] (Homo sapiens, A2780, 72 h).

With `C[C@@H](c1ccccc1)N(C)S(=O)(=O)c1ccc(NC(=O)NCc2cccnc2)cc1` [3-(4-{methyl[(1S)-1-phenylethyl]sulfamoyl}phenyl)-1-(pyridin-3-ylmethyl)urea], the IC50 in experiment [1] amounted to 0.001 µM; in experiment [2] (Homo sapiens, A2780, 72 h), 0.008 µM.

`O=C(NCc1cccnc1)Nc1ccc(S(=O)(=O)c2cc(Cl)ccc2Cl)cc1` [3-{4-[(2,5-dichlorobenzene)sulfonyl]phenyl}-1-(pyridin-3-ylmethyl)urea]: the IC50 in experiment [1] stood at 0.006 µM; in experiment [2] (Homo sapiens, A2780, 72 h), 0.652 µM.

With `O=C(NCc1cccnc1)Nc1ccc(S(=O)(=O)N2CC[C@H]3CCCC[C@@H]3C2)cc1` (relative stereo) [rel-3-{4-[(4aR,8aS)-decahydroisoquinoline-2-sulfonyl]phenyl}-1-(pyridin-3-ylmethyl)urea], the IC50 stood at 0.002 µM in experiment [1] and 0.101 µM in experiment [2] (Homo sapiens, A2780, 72 h).

On to `O=C(NCc1cccnc1)Nc1ccc(S(=O)(=O)C2CCCC2)cc1` [1-[4-(cyclopentanesulfonyl)phenyl]-3-(pyridin-3-ylmethyl)urea], for which the IC50 was 0.043 µM in experiment [1] and 1.86 µM in experiment [2] (Homo sapiens, A2780, 72 h).

As to `Cc1cccc(S(=O)(=O)c2ccc(NC(=O)NCc3cccnc3)cc2)c1C` [3-{4-[(2,3-dimethylbenzene)sulfonyl]phenyl}-1-(pyridin-3-ylmethyl)urea], the IC50 in experiment [1] was found to be 0.005 µM; in experiment [2] (Homo sapiens, A2780, 72 h), 0.298 µM.

Regarding `COc1c(C)cc(S(=O)(=O)c2ccc(NC(=O)NCc3cccnc3)cc2)cc1C` [3-{4-[(4-methoxy-3,5-dimethylbenzene)sulfonyl]phenyl}-1-(pyridin-3-ylmethyl)urea], the IC50 amounted to 0.0021 µM in experiment [1] and 0.0089 µM in experiment [2] (Homo sapiens, A2780, 72 h).

In the case of `O=C(NCc1cccnc1)Nc1ccc(S(=O)(=O)c2cccc3c2oc2ccccc23)cc1` [1-(4-{8-oxatricyclo[7.4.0.0^2,^7]trideca-1(9),2(7),3,5,10,12-hexaene-6-sulfonyl}phenyl)-3-(pyridin-3-ylmethyl)urea], the figures for the IC50 in experiment [1] and in experiment [2] were 0.002 µM and 0.003 µM, respectively.

For the compound `O=C(NCc1cccnc1)Nc1ccc(S(=O)(=O)c2cncnc2)cc1` [3-(pyridin-3-ylmethyl)-1-[4-(pyrimidine-5-sulfonyl)phenyl]urea], the IC50 in experiment [1] amounted to 0.02 µM; in experiment [2] (Homo sapiens, A2780, 72 h) it was 0.871 µM.

As for `CS(=O)(=O)N(c1cccc(N)c1)S(=O)(=O)c1ccc(NC(=O)NCc2cccnc2)cc1` [3-{4-[(3-aminophenyl)(methanesulfonyl)sulfamoyl]phenyl}-1-(pyridin-3-ylmethyl)urea], the IC50 is 0.003 µM in experiment [1] and 0.11 µM in experiment [2] (Homo sapiens, A2780, 72 h).

With `Cc1ccc(F)cc1S(=O)(=O)c1ccc(NC(=O)NCc2cccnc2)cc1` [3-{4-[(5-fluoro-2-methylbenzene)sulfonyl]phenyl}-1-(pyridin-3-ylmethyl)urea], the IC50 in experiment [1] came to 0.004 µM; in experiment [2] (Homo sapiens, A2780, 72 h) it was 0.489 µM.

Take `O=C(NCc1cccnc1)Nc1ccc(S(=O)(=O)N2CCC(F)(F)CC2)cc1` [1-[4-(4,4-difluoropiperidine-1-sulfonyl)phenyl]-3-(pyridin-3-ylmethyl)urea]: the IC50 was 0.025 µM in experiment [1] and 0.299 µM in experiment [2] (Homo sapiens, A2780, 72 h).

Regarding `CN(Cc1ccc(Cl)cc1)S(=O)(=O)c1ccc(NC(=O)NCc2cccnc2)cc1` [3-(4-{[(4-chlorophenyl)methyl](methyl)sulfamoyl}phenyl)-1-(pyridin-3-ylmethyl)urea], the half-maximal inhibitory concentration (IC50) turned out to be 0.002 µM in experiment [1] and 0.484 µM in experiment [2] (Homo sapiens, A2780, 72 h).

Regarding `O=C(NCc1cccnc1)Nc1ccc(S(=O)(=O)N2CCCCC2)cc1F` [3-[2-fluoro-4-(piperidine-1-sulfonyl)phenyl]-1-(pyridin-3-ylmethyl)urea], the IC50 in experiment [1] turned out to be 0.023 µM; in experiment [2] (Homo sapiens, A2780, 72 h), 1 µM.
